The term solubility denotes the concentration that dissolves in the medium under given conditions. A low value points to little dissolved substance.

In brackets after ≈: the same amount, converted by molar mass.

We go through one compound from patent publication US20150258118A1, “CO-MICRONISATION PRODUCT COMPRISING A SELECTIVE PROGESTERONE-RECEPTOR MODULATOR” (LABORATOIRE HRA-PHARMA, priority 2012, published 2015).

Data set [1] can be described thus: UPA solubility as a function of pH. Type of data set: physicochemical.
For data set [2] the following is noted: chronic administration, 5 mg or 10 mg per day; cited from earlier work.
Data set [3] can be described thus: In vitro dissolution of UPA comicronizates (gelatin capsules, paddle device, Eur. Pharmacopoeia §2.9.3). As to conditions: 30 mg UPA capsule, 900 ml gastric pH buffer, 0.1% SDS, 37°C, 50 rpm, mean of 3. The class given is physicochemical. The procedure:
The co-micronization product has improved active ingredient in vitro dissolution properties. In certain embodiments, the co-micronization product according to the invention is characterized in that at least 55% of the active ingredient that it contains is released within 45 minutes when said co-micronization product is subjected to an in vitro dissolution test, preferably according to the European Pharmacopoeia §2.9.3. The in vitro dissolution test can be carried out using any commercially available device. Example 1 hereinafter presents implementing conditions for determining the in vitro dissolution rate of a comicronizate according to the invention. Briefly, an amount of comicronizate representing 30 mg of active ingredient is placed in a gelatin capsule. This capsule is then placed in 900 ml of a medium buffered at gastric pH, comprising 0.1% of SDS, at 37±0.5° C., and subjected to stirring at 50 revolutions per minute (rpm) (speed of rotation of the paddles of the dissolution device). The dissolution of the active ingredient in the medium can be monitored by spectrophotometry, for example at the maximum wavelength of absorbance. For the purposes of the invention, a gastric pH is typically a pH of 1 to 3.
For each comicronizate obtained, gelatin capsules containing an amount of comicronizate corresponding to 30 mg of UPA per capsule were prepared. The studies of the in vitro dissolution of UPA as comicronizate were carried out using these capsules according to the method described in the European Pharmacopoeia in §2.9.3, using a paddle dissolution device.
For each comicronizate, a capsule containing said comicronizate was placed in a bowl of the dissolution device containing 900 ml of a dissolution medium. The dissolution medium is an aqueous solution buffered at gastric pH and comprising 0.1% of SDS. The conditions for carrying out the in vitro dissolutions are the following: • Paddle rotation speed: 50 revolutions per minute (rpm) • Temperature: 37° C.±0.5° C.
The dissolution of the UPA was monitored by spectrophotometry.
By way of control experiment, a gelatin capsule containing 30 mg of ulipristal acetate micronized alone (i.e. UPA micronized in the absence of any co-micronization excipient) was used. For each comicronizate, the dissolution experiment was reproduced 3 times.
These various active ingredient matrices were subjected to an in vitro dissolution test as described above in the “Materials and Methods” section.

The conditions of data set [4]: single dose of 30 mg, within 120 hours following unprotected or poorly protected intercourse; cited from earlier work.

With `CC(=O)O[C@]1(C(C)=O)CCC2C3CCC4=CC(=O)CCC4=C3[C@@H](c3ccc(N(C)C)cc3)C[C@@]21C` (stereo partly drawn) [UPA, 17α-acetoxy-11β-(4-N,N-dimethylaminophenyl)-19-norpregna-4,9-diene-3,20-dione], the solubility in data set [1] (pH 1.2, simulated gastric fluid) is 22700 µg/mL (≈ 47700 µM); in data set [1] (pH 4.5, aqueous buffer), 39 µg/mL (≈ 82 µM); in data set [1] (pH 6.8, aqueous buffer) it was 5 µg/mL (≈ 10.5 µM). In addition, in data set [2], the “Symptoms associated with uterine fibromas” value was “significantly reduce the symptoms associated with uterine fibromas”. Further, the “Percentage of UPA released relative to the initial amount of UPA per gel capsule” value in data set [3] (time 0 min) is 0.00%; in data set [3] (time 1 min), 0.00%; in data set [3] (time 5 min) it was 5.50%; in data set [3] (time 7.5 min) it was 15.00%; in data set [3] (time 10 min) it was 22.30%; in data set [3] (time 15 min), 30.00%. Besides, the “Percentage of UPA released relative to the initial amount of UPA per gel capsule” value in data set [3] (time 20 min) is reported as 34.30%; in data set [3] (time 30 min, listed as Micronized UPA) it was 39.50%; in data set [3] (time 30 min, listed as micronized ulipristal acetate) it was “approximately 39%”; in data set [3] (time 45 min), 47.50%; in data set [3] (time 60 min), 53.80%. Further, in data set [4], the “Prevention of unwanted pregnancy” value was “makes it possible to prevent an unwanted pregnancy”.
